Values joined by “and” are separate entries in the source; they are usually repeats but may differ in a detail not shown here. Identical values can stand only once.
Target: T1, hSGLT2 F453A (Homo sapiens, UniProt P31639, F453A)
T1 sequence (P31639 1-672 F453A): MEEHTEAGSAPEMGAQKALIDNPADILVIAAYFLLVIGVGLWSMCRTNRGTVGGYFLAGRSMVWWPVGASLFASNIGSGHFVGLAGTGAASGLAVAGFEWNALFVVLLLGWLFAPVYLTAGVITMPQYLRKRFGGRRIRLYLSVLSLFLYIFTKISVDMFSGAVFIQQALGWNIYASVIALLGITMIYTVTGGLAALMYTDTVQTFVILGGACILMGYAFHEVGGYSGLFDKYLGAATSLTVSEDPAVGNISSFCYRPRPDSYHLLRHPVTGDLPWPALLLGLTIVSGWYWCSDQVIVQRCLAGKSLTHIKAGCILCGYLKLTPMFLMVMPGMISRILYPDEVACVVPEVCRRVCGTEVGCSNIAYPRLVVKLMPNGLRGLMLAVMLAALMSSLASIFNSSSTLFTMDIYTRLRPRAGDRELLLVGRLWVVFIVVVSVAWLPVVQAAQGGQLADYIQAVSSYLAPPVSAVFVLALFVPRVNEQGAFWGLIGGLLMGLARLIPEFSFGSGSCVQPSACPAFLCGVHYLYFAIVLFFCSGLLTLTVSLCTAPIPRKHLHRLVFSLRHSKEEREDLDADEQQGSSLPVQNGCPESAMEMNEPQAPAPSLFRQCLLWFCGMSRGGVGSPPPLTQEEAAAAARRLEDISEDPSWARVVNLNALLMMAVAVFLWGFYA
T1 sequence (Q13113 1-114 partner): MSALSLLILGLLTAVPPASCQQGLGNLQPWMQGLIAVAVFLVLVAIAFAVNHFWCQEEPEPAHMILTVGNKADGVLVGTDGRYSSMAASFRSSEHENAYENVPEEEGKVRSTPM
Assay: SGLT2 inhibitor-binding assay (AS-MS), crude membrane, F453A mutant
Design: expressed in transfected cells; host or cells: Expi293 cells, crude membrane fraction
Conditions: 30 nM canagliflozin, replicates
Description: hSGLT2 complementary DNA and human MAP17 cDNA were synthesized and codon-optimized for expression in human cell lines. Both cDNAs were cloned into the pcDNA3.4 vector. The hSGLT2 sequence was fused with an N-terminal signal sequence from human trypsinogen 1, a His10 tag, and sfGFP, followed by a human rhinovirus 3C protease (HRV3C protease) recognition site. Point mutations were introduced into this construct using site-directed mutagenesis. These plasmids were utilized for all experimental procedures conducted in this study.
To examine the inhibition of binding to the crude membrane, mammalian Expi293 cells were co-transfected with the hMAP17 and hSGLT2 plasmids, as described. […] The extract solution from the filter plate was diluted with water containing candesartan as an internal standard, and the SGLT2 inhibitor concentration was quantified via LC–MS/MS.
Nonspecific binding was measured using the crude membrane of nontransfected Expi293 cells. Specific binding was calculated by subtracting nonspecific binding from the binding of hSGLT2-expressing cells. Specific binding was normalized to hSGLT2 protein expression levels, measured via FSEC. The equilibrium dissociation constant (Kd) and maximum number of binding sites (Bmax) were calculated via nonlinear regression in GraphPad Prism 8.4.3. […]

## Cc1ccc([C@@H]2O[C@H](CO)[C@@H](O)[C@H](O)[C@H]2O)cc1Cc1ccc(-c2ccc(F)cc2)s1 [Canagliflozin]
  Canagliflozin binding (% of WT): 4.952 % of WT and 11.6565 % of WT and 16.2768 % of WT
